Reference: patent US20250376445A1, “COMPOUNDS AND METHODS FOR YAP/TEAD MODULATION AND INDICATIONS THEREFOR” (OPNA BIO SA, priority 2023, published 2025)

System: TEAD-dependent transcription
Test: TEAD-dependent transcription cell-based reporter assay (MSTO-211H+12XGTIIC luciferase)
Parameters: species or system human
Conditions: Homo sapiens; MSTO-211H+12XGTIIC reporter cells, 24 hours compound incubation, luminescence normalized to viability; read-out: MSTO-211H GMean IC50 (uM) Cell Assay Reporter Cell Variant: TEAD
Source text: The human mesothelioma cell line MSTO-211H was stably transfected with a pGL4.21 plasmid containing a synthetic promoter with 12 copies of the GTIIC TEAD response element that drives the expression of a luciferase reporter gene^1 using Lipofectamine transfection reagent (Thermo Fisher). Transfected cells were selected using puromycin and single cell clones expressing this construct (referred to as MSTO-211H+12XGTIIC) were generated by limiting dilution. MSTO-211H cells was characterized by genetic alterations in key components of the Hippo pathway^2, resulting in up-regulation of YAP/TEAD-mediated transcription. […] To evaluate TEAD inhibitors, the MSTO-211H+12XGTIIC cell line was seeded in a 96-well plate in 50 μL of culture media at 1×10^4 cells per well and incubated at 37° C. overnight. Serial dilutions of compounds (in total volume of 50 μL of culture media) were added to the cells and incubated at 37° C. for 24 hours. Each plate included cells treated with DMSO as high controls and cells treated with 20 μM of the reference compound K-975 (a known TEAD inhibitor)^3 as low controls. Cell viability was assayed by the addition of 25 μL of CellTiter-Fluor reagent (Promega) followed by a 30-minute incubation at 37° C. and quantification of the fluorescence signal (Ex400/Em505). Subsequently, luciferase expression was assayed by the addition of 25 μL of ONE-Glo reagent (Promega) followed by a 10-minute incubation at room temperature and quantification of the luminescence signal. The luminescence signal was normalized to the fluorescence signal to correct for any loss in cell viability over the 24-hour compound incubation period. The percentage of inhibition of normalized luminescence signal, indicative of compound-mediated inhibition of TEAD-dependent transcription, at individual compound concentrations relative to high and low controls was calculated. The data were analyzed by using nonlinear regression to generate IC50 values for individual compounds.

Row | SMILES | IC50
1 | O=C(c1cccc2sc(C(F)(F)F)nc12)N1CCc2c(cccc2C(F)c2ccc(C(F)(F)F)cc2)C1 (centres unmarked) [O-0070, (5-(fluoro(4-(trifluoromethyl)phenyl)methyl)-3,4-dihydroisoquinolin-2(1H)-yl)(2-(trifluoromethyl)benzo[d]thiazol-4-yl)methanone] | 0.001 to 10 µM
2 | O=C(c1ccc(C(F)(F)F)cc1)c1cccc2c1CCN(C(=O)Cc1ncc[nH]1)C2 [O-0071, 2-(1H-imidazol-2-yl)-1-(5-(4-(trifluoromethyl)benzoyl)-3,4-dihydroisoquinolin-2(1H)-yl)ethan-1-one] | 0.001 to 10 µM
3 | O=C(c1ccc(C(F)(F)F)cc1)c1cccc2c1CCN(C(=O)c1ncc(C(F)(F)F)[nH]1)C2 [O-0072, (5-(trifluoromethyl)-1H-imidazol-2-yl)(5-(4-(trifluoromethyl)benzoyl)-3,4-dihydroisoquinolin-2(1H)-yl)methanone] | 0.001 to 10 µM
4 | O=C(c1ccc(C(F)(F)F)cc1)c1cccc2c1CCN(C(=O)c1ccc3nc(C(F)(F)F)[nH]c3c1)C2 [O-0073, (2-(trifluoromethyl)-1H-benzo[d]imidazol-6-yl)(5-(4-(trifluoromethyl)benzoyl)-3,4-dihydroisoquinolin-2(1H)-yl)methanone] | 0.001 to 10 µM
5 | O=C(c1ccc(C(F)(F)F)cc1)c1cccc2c1CCN(C(=O)c1ccc3nc[nH]c3c1)C2 [O-0074, (2-(1H-benzo[d]imidazole-6-carbonyl)-1,2,3,4-tetrahydroisoquinolin-5-yl)(4-(trifluoromethyl)phenyl)methanone] | 0.001 to 10 µM
6 | O=C(c1ccc(C(F)(F)F)cc1)c1cccc2c1CCN(C(=O)c1ccc3[nH]ccc3c1)C2 [O-0075, (2-(1H-indole-5-carbonyl)-1,2,3,4-tetrahydroisoquinolin-5-yl)(4-(trifluoromethyl)phenyl)methanone] | 0.001 to 10 µM
7 | O=C(c1ccc(C(F)(F)F)cc1)c1cccc2c1CCN(C(=O)Cc1cscn1)C2 [O-0076, 2-(thiazol-4-yl)-1-(5-(4-(trifluoromethyl)benzoyl)-3,4-dihydroisoquinolin-2(1H)-yl)ethan-1-one] | 0.001 to 10 µM
8 | CS(=O)(=O)CCC(=O)N1CCc2c(cccc2C(F)c2ccc(C(F)(F)F)cc2)C1 (centres unmarked) [O-0077, 1-(5-(fluoro(4-(trifluoromethyl)phenyl)methyl)-3,4-dihydroisoquinolin-2(1H)-yl)-3-(methylsulfonyl)propan-1-one] | 0.001 to 10 µM
9 | COC(c1ccc(C(F)(F)F)cc1)c1cccc2c1CCN(C(=O)CCS(C)(=O)=O)C2 (centres unmarked) [O-0078, 1-(5-(methoxy(4-(trifluoromethyl)phenyl)methyl)-3,4-dihydroisoquinolin-2(1H)-yl)-3-(methylsulfonyl)propan-1-one] | 0.001 to 10 µM
10 | O=C(Cc1cscn1)N1CCc2c(Cc3ccc(C(F)(F)F)cc3)cccc2C1 [O-0079, 2-(thiazol-4-yl)-1-(5-(4-(trifluoromethyl)benzyl)-3,4-dihydroisoquinolin-2(1H)-yl)ethan-1-one] | 0.001 to 10 µM
11 | O=C(Cc1c[nH]cn1)N1CCc2c(Cc3ccc(C(F)(F)F)cc3)cccc2C1 [O-0080, 2-(1H-imidazol-4-yl)-1-(5-(4-(trifluoromethyl)benzyl)-3,4-dihydroisoquinolin-2(1H)-yl)ethan-1-one] | 0.001 to 10 µM
12 | CS(=O)(=O)CCC(=O)N1CCc2c(cccc2C(=O)c2ccc(C(F)(F)F)cc2)C1 [O-0081, 3-(methylsulfonyl)-1-(5-(4-(trifluoromethyl)benzoyl)-3,4-dihydroisoquinolin-2(1H)-yl)propan-1-one] | 0.001 to 10 µM
13 | CS(=O)(=O)CCC(=O)N1CCc2c(cccc2C(O)c2ccc(C(F)(F)F)cc2)C1 (centres unmarked) [O-0082, 1-(5-(hydroxy(4-(trifluoromethyl)phenyl)methyl)-3,4-dihydroisoquinolin-2(1H)-yl)-3-(methylsulfonyl)propan-1-one] | 0.001 to 10 µM
14 | C=CC(=O)N1CCc2cc(-c3ccc(C(F)(F)F)cc3)ccc2C1 [O-0110, 1-(6-(4-(trifluoromethyl)phenyl)-3,4-dihydroisoquinolin-2(1H)-yl)prop-2-en-1-one] | 0.001 to 10 µM
15 | C=CS(=O)(=O)N1CCc2cc(-c3ccc(C(F)(F)F)cc3)ccc2C1 [O-0111, 6-(4-(trifluoromethyl)phenyl)-2-(vinylsulfonyl)-1,2,3,4-tetrahydroisoquinoline] | 0.001 to 10 µM
16 | C=CC(=O)N1CCc2ccc(-c3ccc(C(F)(F)F)cc3)cc2C1 [O-0113, 1-(7-(4-(trifluoromethyl)phenyl)-3,4-dihydroisoquinolin-2(1H)-yl)prop-2-en-1-one] | 0.001 to 10 µM

Row | SMILES | IC50
17 | C=CS(=O)(=O)N1CCc2ccc(-c3ccc(C(F)(F)F)cc3)cc2C1 [O-0114, 7-(4-(trifluoromethyl)phenyl)-2-(vinylsulfonyl)-1,2,3,4-tetrahydroisoquinoline] | 0.001 to 10 µM
18 | C=CC(=O)N1CCc2c(cccc2-c2ccc(C(F)(F)F)cc2)C1 [O-0116, 1-(5-(4-(trifluoromethyl)phenyl)-3,4-dihydroisoquinolin-2(1H)-yl)prop-2-en-1-one] | 0.001 to 10 µM
19 | C=CS(=O)(=O)N1CCc2c(cccc2-c2ccc(C(F)(F)F)cc2)C1 [O-0117, 5-(4-(trifluoromethyl)phenyl)-2-(vinylsulfonyl)-1,2,3,4-tetrahydroisoquinoline] | 0.001 to 10 µM
20 | O=C(CCS(=O)(=O)C(F)(F)F)N1CCc2cc(-c3ccc(C(F)(F)F)cc3)ccc2C1 [O-0128, 1-(6-(4-(trifluoromethyl)phenyl)-3,4-dihydroisoquinolin-2(1H)-yl)-3-((trifluoromethyl)sulfonyl)propan-1-one] | 0.001 to 10 µM
21 | O=C(CCS(=O)(=O)C(F)(F)F)N1CCc2cc(-c3ccc(C(F)(F)F)c(F)c3)ccc2C1 [O-0130, 1-(6-(3-fluoro-4-(trifluoromethyl)phenyl)-3,4-dihydroisoquinolin-2(1H)-yl)-3-((trifluoromethyl)sulfonyl)propan-1-one] | 0.001 to 10 µM
22 | C[C@@H](Nc1ccccn1)C(=O)N1CCc2c(cccc2-c2ccc(C(F)(F)F)cc2)C1 [O-0131, (R)-2-(pyridin-2-ylamino)-1-(5-(4-(trifluoromethyl)phenyl)-3,4-dihydroisoquinolin-2(1H)-yl)propan-1-one] | 0.001 to 10 µM
23 | C[C@@H](NC(=O)c1cccc(N)n1)C(=O)N1CCc2c(cccc2-c2ccc(C(F)(F)F)cc2)C1 [O-0132, (R)-6-amino-N-(1-oxo-1-(5-(4-(trifluoromethyl)phenyl)-3,4-dihydroisoquinolin-2(1H)-yl)propan-2-yl)picolinamide] | 0.001 to 10 µM
24 | C[C@@H](NC(=O)c1cccc(N)n1)C(=O)N1CCc2ccc(-c3ccc(C(F)(F)F)cc3)cc2C1 [O-0133, (R)-6-amino-N-(1-oxo-(7-(4-(trifluoromethyl)phenyl)-3,4-dihydroisoquinolin-2(1H)-yl)propan-2-yl)picolinamide] | 0.001 to 10 µM
25 | CC(C)C[C@@H](NS(C)(=O)=O)C(=O)N1CCc2c(cccc2-c2ccc(C(F)(F)F)cc2)C1 [O-0139, (R)-N-(4-methyl-1-oxo-1-(5-(4-(trifluoromethyl)phenyl)-3,4-dihydroisoquinolin-2(1H)-yl)pentan-2-yl)methanesulfonamide] | 0.001 to 10 µM
26 | C[C@@H](Nc1ccccn1)C(=O)N1CCc2cc(-c3ccc(C(F)(F)F)cc3)ccc2C1 [O-0145, (R)-2-(pyridin-2-ylamino)-1-(6-(4-(trifluoromethyl)phenyl)-3,4-dihydroisoquinolin-2(1H)-yl)propan-1-one] | 0.001 to 10 µM
27 | C[C@@H](NS(C)(=O)=O)C(=O)N1CCc2cc(-c3ccc(C(F)(F)F)cc3)ccc2C1 [O-0161, (R)-N-(1-oxo-1-(6-(4-(trifluoromethyl)phenyl)-3,4-dihydroisoquinolin-2(1H)-yl)propan-2-yl)methanesulfonamide] | 0.001 to 10 µM
28 | C[C@@H](NC(=O)c1ccccn1)C(=O)N1CCc2ccc(-c3ccc(C(F)(F)F)cc3)cc2C1 [O-0177, (R)-N-(1-oxo-1-(7-(4-(trifluoromethyl)phenyl)-3,4-dihydroisoquinolin-2(1H)-yl)propan-2-yl)picolinamide] | 0.001 to 10 µM
29 | CC(=O)N[C@H](C)C(=O)N1CCc2ccc(-c3ccc(C(F)(F)F)cc3)cc2C1 [O-0182, (R)-N-(1-oxo-1-(7-(4-(trifluoromethyl)phenyl)-3,4-dihydroisoquinolin-2(1H)-yl)propan-2-yl)acetamide] | 0.001 to 10 µM
30 | C[C@@H](NS(C)(=O)=O)C(=O)N1CCc2c(cccc2-c2ccc(C(F)(F)F)cc2)C1 [O-0185, (R)-N-(1-oxo-1-(5-(4-(trifluoromethyl)phenyl)-3,4-dihydroisoquinolin-2(1H)-yl)propan-2-yl)methanesulfonamide] | 0.001 to 10 µM
31 | C[C@@H](N)C(=O)N1CCc2cc(-c3ccc(C(F)(F)F)cc3)ccc2C1 [O-0186, (R)-2-amino-1-(6-(4-(trifluoromethyl)phenyl)-3,4-dihydroisoquinolin-2(1H)-yl)propan-1-one] | 0.001 to 10 µM
32 | C[C@@H](N)C(=O)N1CCc2ccc(-c3ccc(C(F)(F)F)cc3)cc2C1 [O-0187, (R)-2-amino-1-(7-(4-(trifluoromethyl)phenyl)-3,4-dihydroisoquinolin-2(1H)-yl)propan-1-one] | 0.001 to 10 µM
